Laboratory results as given in patent publication US20080194407A1, “High nitrogen containing chelate compositions suitable for plant delivery” (priority 2007, published 2008).

How the values were obtained:
oranges = experiment: Orange orchard foliar zinc study: fruit production and quality; assay type: in vivo, orange trees; details: equivalent zinc
Method: A study was conducted in oranges in which the application of zinc nitrate was compared to a zinc mixed ligand amino acid chelate. The mixed ligands included arginine, lysine, histidine, leucine, tryptophan, aspartic acid, alanine, and glycine. Specifically, a 12 year old orchard containing 193 trees per acre was evaluated. The trees were divided into 2 groups. One group was sprayed with a zinc nitrate treatment, and the other group was sprayed with a zinc mixed ligand amino acid chelate treatment. The treatments were applied by a sprayer that sprays 535 gallons of liquid per acre.
Each tree was sprayed twice during the study, a first time at 90% petal drop and a second time 14 days later. The zinc nitrate was applied at 49 ounces per acre and the amino acid chelate at 66 ounces per acre. The amount of zinc applied to each group was equivalent.
Ten trees from each group were selected at random and the oranges picked from those trees by hand.

Golden Delicious apples [1] = experiment: Golden Delicious apple foliar calcium study: bitterpit and culls; assay type: in vivo, apple trees; details: apples harvested and stored; 4 foliar applications, 14 day interval
Method: A study was conducted with Golden Delicious apples. […] As a secondary aspect of this study, the leaves and fruit were analyzed to see if the source of calcium could affect calcium retention in the plant tissues.
(§1) A block of mature apple trees was divided into 4 sections.
(§2) The amino acids in the calcium chelate were glycine, valine, leucine, tryptophan, isoleucine, lysine, aspartic acid, alanine, and arginine. All treatments were made on the same day. The applications began with the first cover spray and continued from there every 14 days for 4 applications. The leaves were collected from a fruiting spur located at a 45 degree angle from the spray rig and into the tree canopy 3 feet. Samples were collected and sent for analysis. Apples were also collected on the same day from the same location as the leaves. They also were sent for analysis of the fruit flesh. The orchard was then harvested and placed in storage.
It is noted that absorption of calcium into the plant from a foliar spray is only part of what the plant needs. The calcium source must be able to be retained by the plant after absorption and then be translocated and enter into metabolic activities as needed.

Golden Delicious apples [2] = experiment: Golden Delicious apple foliar calcium study: Ca analysis of leaves and fruit; assay type: in vivo, apple trees; details: 4 foliar applications, 14 day interval; for Apple Ca: apple fruit flesh; for Leaf Ca: apple leaves from fruiting spur
Method: A study was conducted with Golden Delicious apples. Calcium is effective in reducing bitterpit in apples, and the present study was initially designed to determine which source of calcium, described below, had the greatest impact on reducing bitterpit. As a secondary aspect of this study, the leaves and fruit were analyzed to see if the source of calcium could affect calcium retention in the plant tissues.
as §1, §2

corn (maze) plants [3] = experiment: Greenhouse foliar study in corn: plant growth as dry matter; assay type: in vivo; details: 400 ppm Fe foliar spray twice
Method: A greenhouse foliar study was conducted in which 12 inch corn (maze) plants were sprayed with a solution that contained 400 ppm Fe as FeSO4, Fe EDTA, or Fe high nitrogen amino acid chelate with and without the addition of urea and ammonium nitrate. The high nitrogen amino acids were lysine, histidine, cysteine, tryptophan, aspartic acid, alanine, and glycine. The urea and ammonium nitrate were formulated as an admixture and not reacted to the Fe sources. […] These same treatments were repeated one week later. Three weeks following the last spray, all of the plants were harvested and the roots separated from the stalks. Each sample was dried for 24 hours at 75° C., then weighed for dry matter, and the Fe concentrations determined by plasma emission spectrophotometry. […] Greater Fe retention also results in greater plant growth as measured by dry matter.

corn (maze) plants [4] = experiment: Greenhouse foliar study in corn: Fe concentration by plasma emission spectrophotometry; assay type: in vivo; details: 400 ppm Fe foliar spray twice, harvest three weeks after last spray
Method: A greenhouse foliar study was conducted in which 12 inch corn (maze) plants were sprayed with a solution that contained 400 ppm Fe as FeSO4, Fe EDTA, or Fe high nitrogen amino acid chelate with and without the addition of urea and ammonium nitrate. The high nitrogen amino acids were lysine, histidine, cysteine, tryptophan, aspartic acid, alanine, and glycine. The urea and ammonium nitrate were formulated as an admixture and not reacted to the Fe sources. […] These same treatments were repeated one week later. Three weeks following the last spray, all of the plants were harvested and the roots separated from the stalks. Each sample was dried for 24 hours at 75° C., then weighed for dry matter, and the Fe concentrations determined by plasma emission spectrophotometry.

[5] = 0 ppm N from urea and ammonium nitrate
[6] = 500 ppm N from urea and ammonium nitrate
[7] = 1000 ppm N urea and ammonium nitrate

Row | Structure (SMILES) | percent of bitterpit in the culls (Golden Delicious apples [1]) [%] | percent of culls (Golden Delicious apples [1]) [%] | Apple Ca (Golden Delicious apples [2]) [ppm] | Leaf Ca (Golden Delicious apples [2]) [%] | Dry Matter (corn (maze) plants [3]; [5]) [g/pot] | Dry Matter (corn (maze) plants [3]; [6]) [g/pot] | Dry Matter (corn (maze) plants [3]; [7]) [g/pot] | Fe in Leaves (corn (maze) plants [4]; [5]) [ppm^a Fe ppm Fe] | Fe in Leaves (corn (maze) plants [4]; [6]) [ppm^a Fe ppm Fe] | Fe in Leaves (corn (maze) plants [4]; [7]) [ppm^a Fe ppm Fe] | further results
1 | O=[N+]([O-])[O-].O=[N+]([O-])[O-].[Zn+2] [Zn Nitrate, zinc nitrate] |  |  |  |  |  |  |  |  |  |  | % Acid (oranges; oranges, sprayed twice): 1.05%; % Brix (oranges; oranges, sprayed twice): 12.2%; % Juice (oranges; oranges, sprayed twice): 57.2%; Weight of oranges/tree (oranges; sprayed twice (90% petal drop and 14 days later), ten trees per group): 95.11 lbs
2 | O=[N+]([O-])[O-].O=[N+]([O-])[O-].[Ca+2] [Ca Nitrate, calcium nitrate] | 20 | 34 | 190 | 2.37 |  |  |  |  |  |  | 
3 | O=C([O-])CN(CCN(CC(=O)[O-])CC(=O)[O-])CC(=O)[O-].[Fe+3] [Fe EDTA] |  |  |  |  | 14.12 | 15.08 | 11.24 | 47 | 56 | 69 | 
4 | O=S(=O)([O-])[O-].[Fe+2] [FeSO4] |  |  |  |  | 13.23 | 15.73 | 14.82 | 48 | 53 | 63 | 
5 | [Ca+2].[Cl-].[Cl-] [Ca Chloride, calcium chloride] | 26 | 36 | 138 | 1.70 |  |  |  |  |  |  | 
6 | [O]=[Ca] [Ca Oxide, calcium oxide] | 25 | 34 | 148 | 2.15 |  |  |  |  |  |  | 
